Format in all cases: functional
The subject of assay [1] is Mus musculus. The assay can be described thus: Inhibition of NET-mediated norepinephrine-reuptake assessed as yohimbine induced mortality in mouse at 6.47 mM/kg, ip after 24 hrs. Further details: scale not given: the % may be the effect or the level left.
The species entered for assay [2] is Mus musculus. The assay is described as follows: Selectivity ratio of ED50 for 5-HT reuptake in mouse to ED50 for norepinephrine reuptake in mouse.
Assay [3] concerns Mus musculus. The assay can be described thus: Inhibition of NET-mediated norepinephrine-reuptake assessed as yohimbine induced mortality in mouse at 12.94 mM/kg, ip after 24 hrs. Further details: scale not given: the % may be the effect or the level left.
Assay [4] relates to Mus musculus. The assay is described as follows: Inhibition of SERT-mediated serotonin-reuptake assessed as 5-hydroxytryptophan induced mouse head twitch at 3.24 mM/kg, ip after 20 mins. Further details: scale not given: the % may be the effect or the level left.
The test system of assay [5] is Mus musculus. The assay is described as follows: Inhibition of NET-mediated norepinephrine-reuptake assessed as yohimbine induced mortality in intraperitoneally dosed mouse after 24 hrs. As to conditions: ip.
For assay [6], the system named is Mus musculus. The assay is described as follows: Inhibition of NET-mediated norepinephrine-reuptake assessed as yohimbine induced mortality in mouse at 19.42 mM/kg, ip after 24 hrs.
Assay [7] deals with Mus musculus. The assay is described as follows: Inhibition of SERT-mediated serotonin-reuptake assessed as 5-hydroxytryptophan induced mouse head twitch at 12.94 mM/kg, ip after 20 mins. Further details: scale not given: the % may be the effect or the level left.
In assay [8] the test system is Mus musculus. The assay is described as follows: Inhibition of NET-mediated norepinephrine-reuptake assessed as yohimbine induced mortality in mouse at 25.89 mM/kg, ip after 24 hrs.
The subject of assay [9] is Mus musculus. The assay can be described thus: Inhibition of SERT-mediated serotonin-reuptake assessed as 5-hydroxytryptophan induced mouse head twitch at 6.47 mM/kg, ip after 20 mins. Further details: scale not given: the % may be the effect or the level left.
The subject of assay [10] is Mus musculus. The assay can be described thus: Inhibition of SERT-mediated serotonin-reuptake assessed as 5-hydroxytryptophan induced intraperitoneally dosed mouse head twitch after 20 mins. Conditions: ip.
Assay [11] concerns Mus musculus. The assay is described as follows: Inhibition of NET-mediated norepinephrine-reuptake assessed as yohimbine induced mortality in mouse at 3.24 mM/kg, ip after 24 hrs. Further details: scale not given: the % may be the effect or the level left.
Assay [12] relates to Mus musculus. The assay is described as follows: Inhibition of SERT-mediated serotonin-reuptake assessed as 5-hydroxytryptophan induced mouse head twitch at 1.62 mM/kg, ip after 20 mins. Further details: scale not given: the % may be the effect or the level left.
Assay [13] has as its system Mus musculus. The assay is described as follows: Inhibition of NET-mediated norepinephrine-reuptake assessed as yohimbine induced mortality in mouse at 9.71 mM/kg, ip after 24 hrs. Further details: scale not given: the % may be the effect or the level left.
Assay [14] relates to Mus musculus. The assay is described as follows: Inhibition of SERT-mediated serotonin-reuptake assessed as 5-hydroxytryptophan induced mouse head twitch at 4.86 mM/kg, ip after 20 mins. Further details: scale not given: the % may be the effect or the level left.

The record followed here is ChEMBL document CHEMBL1140502, “Synthesis of some tropane derivatives of anticipated activity on the reuptake of norepinephrine and/or serotonin” (2007).

Each structure is given as a SMILES string.

By ED50 is commonly meant the midpoint of the dose-response relation. Turning to `CN1C2CCC1CC(Oc1cccc(C(F)(F)F)c1)(c1ccccc1)C2` (stereo not drawn), the Activity was 16.67% with Mus musculus [1]; 33.33% with Mus musculus [3]; 33.33% with Mus musculus [4]; “Toxic” with Mus musculus [6]; 83.33% with Mus musculus [7]; “Toxic” in the assay on Mus musculus [8]. Moreover, the Activity in the assay on Mus musculus [9] is recorded as 50%; with Mus musculus [11], 0%. Moreover, in the assay filed under Mus musculus [2], the “Ratio ED50” value is listed as 0.1. For the same molecule, the values for the ED50 in the assay with Mus musculus [5] and in the assay on Mus musculus [10] were 53100 µmol/kg and 5.46 µmol/kg, respectively.
With `CN1C2CCC1CC(Oc1ccc(C(F)(F)F)cc1)(c1ccccc1)C2` (stereo not drawn), the Activity with Mus musculus [1] is recorded as 0%; with Mus musculus [3], 66.67%; in the assay with Mus musculus [4], 50%; with Mus musculus [6], 66.67%; with Mus musculus [7], 83.33%; with Mus musculus [8], 100%. In addition, the Activity in the assay with Mus musculus [9] is listed as 66.67%. Besides, the “Ratio ED50” value in the assay filed under Mus musculus [2] stood at 0.29. Also, the ED50 in the assay on Mus musculus [5] turned out to be 11300 µmol/kg; in the assay on Mus musculus [10] it was 3.3 µmol/kg.
In the case of `CN(C)CCCN1c2ccccc2CCc2ccc(Cl)cc21` [CLOMIPRAMINE], the “Ratio ED50” value in the assay filed under Mus musculus [2] was found to be 0.35. Further, the Activity in the assay on Mus musculus [12] is on record as 50%; in the assay with Mus musculus [4], 50%; with Mus musculus [9], 83.3%; with Mus musculus [13], 66.67%; with Mus musculus [11], 16.67%. The figures for the ED50 in the assay with Mus musculus [5] and with Mus musculus [10] were 5780 µmol/kg and 2 µmol/kg, respectively.
`CN1C2CCC1CC(Oc1ccc(Cl)cc1)(c1ccccc1)C2` (stereo not drawn): the Activity in the assay on Mus musculus [1] came out at 33.33%; in the assay with Mus musculus [3], 33.33%; in the assay on Mus musculus [4] it was 33.33%; in the assay on Mus musculus [7], 83.33%; in the assay with Mus musculus [8], 66.67%; in the assay on Mus musculus [9] it was 66.67%. Also, in the assay filed under Mus musculus [2], the “Ratio ED50” value is given as 0.29. The 50% effective dose (ED50) was determined as 16100 µmol/kg in the assay on Mus musculus [5] and 4.72 µmol/kg with Mus musculus [10].
For `CN1C2CCC1CC(Oc1ccc(C#N)cc1)(c1ccccc1)C2` (stereo not drawn), the Activity with Mus musculus [1] was 50%; with Mus musculus [12] it was 16.67%; in the assay on Mus musculus [3] it was 83.33%; with Mus musculus [4] it was 33.33%; in the assay on Mus musculus [9] it was 66.67%; in the assay on Mus musculus [11] it was 50%. Also, in the assay listed under Mus musculus [2], the “Ratio ED50” value was found to be 1.08. In addition, the results for the ED50 in the assay with Mus musculus [5] and in the assay with Mus musculus [10] were 4080 µmol/kg and 4.44 µmol/kg, respectively.
With `CN1C2CCC1CC(Oc1ccc([N+](=O)[O-])cc1)(c1ccccc1)C2` (stereo not drawn), the Activity in the assay on Mus musculus [1] is 50%; in the assay with Mus musculus [14], 66.67%; with Mus musculus [12] it was 33.33%; in the assay on Mus musculus [3], 50%; with Mus musculus [4], 50%; in the assay with Mus musculus [8], “Toxic”. In addition, the Activity entry in the assay on Mus musculus [9] is “Toxic”; in the assay with Mus musculus [11] it was 0%. For the same molecule, the “Ratio ED50” value in the assay listed under Mus musculus [2] turned out to be 0.29. Moreover, the ED50 was determined as 10300 µmol/kg in the assay with Mus musculus [5] and 2.94 µmol/kg in the assay with Mus musculus [10].
For the molecule `CN1C2CCC1CC(Oc1ccc(Br)cc1)(c1ccccc1)C2` (stereo not drawn), the Activity with Mus musculus [1] is 16.67%; in the assay with Mus musculus [3], 50%; with Mus musculus [4], 33.33%; in the assay on Mus musculus [7], 66.67%; with Mus musculus [8], 100%; in the assay with Mus musculus [9], 50%. Moreover, the “Ratio ED50” value in the assay listed under Mus musculus [2] is 0.56. In the assay on Mus musculus [5], the median effective dose (ED50) came to 11400 µmol/kg.
Consider `CN1C2CCC1CC(Oc1ccc(C#N)cc1)(c1ccc(F)cc1)C2` (stereo not drawn), for which the Activity with Mus musculus [1] was 66.67%; in the assay on Mus musculus [14] it was 66.67%; in the assay with Mus musculus [12], 33.33%; in the assay on Mus musculus [3] it was 100%; in the assay on Mus musculus [4], 50%; in the assay with Mus musculus [9], “Toxic”. For the same molecule, in the assay with Mus musculus [11], the Activity is 16.67%. Besides, the “Ratio ED50” value in the assay filed under Mus musculus [2] was 0.59. Further, the 50% effective dose (ED50) was found to be 5020 µmol/kg with Mus musculus [5] and 2.94 µmol/kg in the assay on Mus musculus [10].
For `CN(C)CCCC1(c2ccc(F)cc2)OCc2cc(C#N)ccc21` (stereo not drawn) [CITALOPRAM], the Activity came to 0% in the assay on Mus musculus [1]; 50% in the assay with Mus musculus [12]; 16.67% with Mus musculus [3]; 83.33% in the assay with Mus musculus [4]; 100% in the assay on Mus musculus [9]. For the same molecule, the “Ratio ED50” value in the assay listed under Mus musculus [2] is 0.12. For the same molecule, the ED50 in the assay with Mus musculus [5] came out at 13700 µmol/kg; with Mus musculus [10], 1.58 µmol/kg.
For the molecule `CNCCC(Oc1ccc(C(F)(F)F)cc1)c1ccccc1` (stereo not drawn) [FLUOXETINE], the Activity in the assay on Mus musculus [1] was 0%; in the assay with Mus musculus [3] it was 0%; in the assay with Mus musculus [4], 16.67%; in the assay with Mus musculus [7] it was 100%; in the assay on Mus musculus [9], 50%; in the assay on Mus musculus [11] it was 0%. In addition, in the assay listed under Mus musculus [2], the “Ratio ED50” value was less than 0.39. Further, the median effective dose (ED50) in the assay on Mus musculus [5] is more than 12900 µmol/kg; in the assay on Mus musculus [10], 5.09 µmol/kg.
